Assay results from the supplement of paper PMC10307832.

Assays:
Experiment in all cases: relative viability (nuclei count vs DMSO), 5 days (fraction); higher = more cells survive
[1] = compound: N=C1NC(=O)/C(=C/c2ccc(O)cc2)S1 [Mirin] + O=C(CCCCCCC(=O)Nc1ccccc1)NO [Vorinostat] (partner 1 µM)
In short: (§1)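 Relative viability divides the nuclei count in treated wells by that in vehicle wells. Lung cancer cell lines were seeded in 1536-well plates, dosed by pin tool the next day, and fixed and stained after 5 days in one step with final 0.05% Triton X-100, 1% formaldehyde and 1 ug/ml Hoechst. Dosing was a single drug or a fixed anchor-drug dose plus five library-drug doses (not always all listed) in √10 steps, and values are medians of duplicate plates imaged at 4×.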

[2] = compound: CCC1=CN=CN=C1N2CCN(CC2)CC3=NC4=C(N3)C=C(C=C4)C(F)(F)F + COc1cc2c(Oc3ccc(NC(=O)C4(C(=O)Nc5ccc(F)cc5)CC4)cc3F)ccnc2cc1OCCCN1CCOCC1 [Foretinib] (partner 0.25 µM)
In short: as §1

[3] = compound: CCC1=CN=CN=C1N2CCN(CC2)CC3=NC4=C(N3)C=C(C=C4)C(F)(F)F + CC(C)C[C@H](NC(=O)[C@H](Cc1ccccc1)NC(=O)c1cnccn1)B(O)O [Bortezomib] (partner 0.002 µM)
In short: as §1

[4] = compound: CCn1c(-c2nonc2N)nc2cnc(Oc3cccc(NC(=O)c4ccc(OCCN5CCOCC5)cc4)c3)cc21 + Cc1cc(Nc2cc(N3CCN(C)CC3)nc(Sc3ccc(NC(=O)C4CC4)cc3)n2)n[nH]1 [Tozasertib] (partner 0.1 µM)
In short: as §1

## 201T
[1]; first compound 0.25 µM
  relative viability: 1.02
[1]; first compound 0.7906 µM
  relative viability: 1.14
[1]; first compound 2.5 µM
  relative viability: 0.956
[1]; first compound 7.906 µM
  relative viability: 1.07
[1]; first compound 25 µM
  relative viability: 1.18
[2]; first compound 0.04 µM
  relative viability: 1.21
[2]; first compound 0.1265 µM
  relative viability: 1.07
[2]; first compound 0.4 µM
  relative viability: 1.09
[2]; first compound 1.265 µM
  relative viability: 1.02
[2]; first compound 4 µM
  relative viability: 1.07
[3]; first compound 0.04 µM
  relative viability: 1.09
[3]; first compound 0.1265 µM
  relative viability: 1.06
[3]; first compound 0.4 µM
  relative viability: 1.04
[3]; first compound 1.265 µM
  relative viability: 1.09
[3]; first compound 4 µM
  relative viability: 1.14
[4]; first compound 0.04 µM
  relative viability: 1.02
[4]; first compound 0.1265 µM
  relative viability: 0.937
[4]; first compound 0.4 µM
  relative viability: 0.958
[4]; first compound 1.265 µM
  relative viability: 0.919
[4]; first compound 4 µM
  relative viability: 1.01

## A549
[2]; first compound 0.04 µM
  relative viability: 0.851
[2]; first compound 0.1265 µM
  relative viability: 0.903
[2]; first compound 0.4 µM
  relative viability: 0.937
[2]; first compound 1.265 µM
  relative viability: 0.816
[2]; first compound 4 µM
  relative viability: 0.905

## A-427
[1]; first compound 0.25 µM
  relative viability: 0.84
[1]; first compound 0.7906 µM
  relative viability: 0.922
[1]; first compound 2.5 µM
  relative viability: 0.904
[1]; first compound 7.906 µM
  relative viability: 0.878
[1]; first compound 25 µM
  relative viability: 0.956
[2]; first compound 0.04 µM
  relative viability: 1.03
[2]; first compound 0.1265 µM
  relative viability: 1.11
[2]; first compound 0.4 µM
  relative viability: 1.03
[2]; first compound 1.265 µM
  relative viability: 0.959
[2]; first compound 4 µM
  relative viability: 0.534
[3]; first compound 0.04 µM
  relative viability: 0.926
[3]; first compound 0.1265 µM
  relative viability: 0.896
[3]; first compound 0.4 µM
  relative viability: 0.936
[3]; first compound 1.265 µM
  relative viability: 0.878
[3]; first compound 4 µM
  relative viability: 0.989
[4]; first compound 0.04 µM
  relative viability: 0.189
[4]; first compound 0.1265 µM
  relative viability: 0.234
[4]; first compound 0.4 µM
  relative viability: 0.228
[4]; first compound 1.265 µM
  relative viability: 0.182
[4]; first compound 4 µM
  relative viability: 0.186

## ABC-1
[1]; first compound 0.25 µM
  relative viability: 1.29
[1]; first compound 0.7906 µM
  relative viability: 1.12
[1]; first compound 2.5 µM
  relative viability: 1.36
[1]; first compound 7.906 µM
  relative viability: 0.871
[1]; first compound 25 µM
  relative viability: 0.772
[2]; first compound 0.04 µM
  relative viability: 1.32
[2]; first compound 0.1265 µM
  relative viability: 1.05
[2]; first compound 0.4 µM
  relative viability: 1.12
[2]; first compound 1.265 µM
  relative viability: 1.24
[2]; first compound 4 µM
  relative viability: 0.886
[3]; first compound 0.04 µM
  relative viability: 0.315
[3]; first compound 0.1265 µM
  relative viability: 0.314
[3]; first compound 0.4 µM
  relative viability: 0.312
[3]; first compound 1.265 µM
  relative viability: 0.402
[3]; first compound 4 µM
  relative viability: 0.37
[4]; first compound 0.04 µM
  relative viability: 0.137
[4]; first compound 0.1265 µM
  relative viability: 0.153
[4]; first compound 0.4 µM
  relative viability: 0.156
[4]; first compound 1.265 µM
  relative viability: 0.209
[4]; first compound 4 µM
  relative viability: 0.176

## BEN
[1]; first compound 0.25 µM
  relative viability: 0.473
[1]; first compound 0.7906 µM
  relative viability: 0.58
[1]; first compound 2.5 µM
  relative viability: 0.6
[1]; first compound 7.906 µM
  relative viability: 0.555
[1]; first compound 25 µM
  relative viability: 0.542
[2]; first compound 0.04 µM
  relative viability: 0.368
[2]; first compound 0.1265 µM
  relative viability: 0.522
[2]; first compound 0.4 µM
  relative viability: 0.527
[2]; first compound 1.265 µM
  relative viability: 0.343
[2]; first compound 4 µM
  relative viability: 0.374
[3]; first compound 0.04 µM
  relative viability: 0.646
[3]; first compound 0.1265 µM
  relative viability: 0.656
[3]; first compound 0.4 µM
  relative viability: 0.708
[3]; first compound 1.265 µM
  relative viability: 0.621
[3]; first compound 4 µM
  relative viability: 0.49
[4]; first compound 0.04 µM
  relative viability: 0.453
[4]; first compound 0.1265 µM
  relative viability: 0.415
[4]; first compound 0.4 µM
  relative viability: 0.518
[4]; first compound 1.265 µM
  relative viability: 0.494
[4]; first compound 4 µM
  relative viability: 0.357

## CAL-12T
[1]; first compound 0.25 µM
  relative viability: 0.622
[1]; first compound 0.7906 µM
  relative viability: 0.868
[1]; first compound 2.5 µM
  relative viability: 0.886
[1]; first compound 7.906 µM
  relative viability: 0.828
[1]; first compound 25 µM
  relative viability: 0.697
[2]; first compound 0.04 µM
  relative viability: 1.08
[2]; first compound 0.1265 µM
  relative viability: 1.1
[2]; first compound 0.4 µM
  relative viability: 1.07
[2]; first compound 1.265 µM
  relative viability: 1.12
[2]; first compound 4 µM
  relative viability: 0.968
[3]; first compound 0.1265 µM
  relative viability: 0.997
[3]; first compound 0.4 µM
  relative viability: 0.888
[3]; first compound 1.265 µM
  relative viability: 1.06
[3]; first compound 4 µM
  relative viability: 1.07
[4]; first compound 0.04 µM
  relative viability: 0.433
[4]; first compound 0.1265 µM
  relative viability: 0.297
[4]; first compound 0.4 µM
  relative viability: 0.28
[4]; first compound 1.265 µM
  relative viability: 0.186
[4]; first compound 4 µM
  relative viability: 0.189

## COR-L23
[1]; first compound 0.25 µM
  relative viability: 0.453
[1]; first compound 0.7906 µM
  relative viability: 0.585
[1]; first compound 2.5 µM
  relative viability: 0.488
[1]; first compound 7.906 µM
  relative viability: 0.327
[1]; first compound 25 µM
  relative viability: 0.31
[2]; first compound 0.04 µM
  relative viability: 0.925
[2]; first compound 0.1265 µM
  relative viability: 0.861
[2]; first compound 0.4 µM
  relative viability: 0.986
[2]; first compound 1.265 µM
  relative viability: 0.918
[2]; first compound 4 µM
  relative viability: 0.897
[3]; first compound 0.04 µM
  relative viability: 0.988
[3]; first compound 0.1265 µM
  relative viability: 0.91
[3]; first compound 0.4 µM
  relative viability: 0.964
[3]; first compound 1.265 µM
  relative viability: 0.956
[3]; first compound 4 µM
  relative viability: 0.957
[4]; first compound 0.04 µM
  relative viability: 0.185
[4]; first compound 0.1265 µM
  relative viability: 0.165
[4]; first compound 0.4 µM
  relative viability: 0.154
[4]; first compound 1.265 µM
  relative viability: 0.12
[4]; first compound 4 µM
  relative viability: 0.135

## COR-L 105
[1]; first compound 0.25 µM
  relative viability: 0.822
[1]; first compound 0.7906 µM
  relative viability: 1.01
[1]; first compound 2.5 µM
  relative viability: 0.983
[1]; first compound 7.906 µM
  relative viability: 0.758
[1]; first compound 25 µM
  relative viability: 0.655
[2]; first compound 0.04 µM
  relative viability: 1.25
[2]; first compound 0.1265 µM
  relative viability: 0.941
[2]; first compound 0.4 µM
  relative viability: 1.04
[2]; first compound 1.265 µM
  relative viability: 0.941
[2]; first compound 4 µM
  relative viability: 1.16
[3]; first compound 0.04 µM
  relative viability: 0.861
[3]; first compound 0.1265 µM
  relative viability: 0.913
[3]; first compound 0.4 µM
  relative viability: 0.737
[3]; first compound 1.265 µM
  relative viability: 0.475
[3]; first compound 4 µM
  relative viability: 0.836
[4]; first compound 0.04 µM
  relative viability: 0.339
[4]; first compound 0.1265 µM
  relative viability: 0.3
[4]; first compound 0.4 µM
  relative viability: 0.308
[4]; first compound 1.265 µM
  relative viability: 0.308
[4]; first compound 4 µM
  relative viability: 0.308

## Calu-6
[2]; first compound 0.04 µM
  relative viability: 0.91
[2]; first compound 0.1265 µM
  relative viability: 0.841
[2]; first compound 0.4 µM
  relative viability: 0.889
[2]; first compound 1.265 µM
  relative viability: 0.807
[2]; first compound 4 µM
  relative viability: 0.782
[3]; first compound 0.04 µM
  relative viability: 0.969
[3]; first compound 0.1265 µM
  relative viability: 0.924
[3]; first compound 0.4 µM
  relative viability: 0.871
[3]; first compound 1.265 µM
  relative viability: 0.884
[3]; first compound 4 µM
  relative viability: 0.829
